# Results published in patent US8178091B2, “Compositions and methods for the treatment of respiratory disorders” (University of Washington, priority 2007, dated 2012).
# Entries after “also recorded” stand apart in the source; their conditions may differ.
# Experiments:
# [1] = test system: primary mouse lung fibroblasts; test: migration assay (FluoroBlok transwell); assay type: cell-based, C57BL6 mice; settings: IGF-1 100 ng/ml; A12 40 μg/ml preincubation
# Method: Mouse lung fibroblasts were plated FluoroBlok transwell filters overnight, then IGF-1 (100 ng/ml), serum free media (negative control), 10% serum (positive control) was added to lower chamber. Some cells were preincubated with the blocking antibody to IGF-1R (A12, 40 μg/ml) before the addition of IGF-1. Cells were allowed to migrate through membrane for 4 hours @ 37° C. Migrated cells were counted with Fluorescent microscope. Each experiments was done in triplicate and repeated at least three times. Average cell count ±SD are presented.
# For migration assays, primary mouse lung fibroblasts (50,000 cells/well) were plated in serum-free medium overnight on Fluoroblok transwell filters (8 μm pores, HTS FluoroBlok™ 24-Multiwell Insert System, BD Bioscience, Bedford, Mass.) pre-coated with fibronectin (50 μg/ml). Fluoroblok microporous membranes are specifically designed to detect by fluorescence only cells below the surface membrane. IGF-1 (100 ng/ml), 10% FBS (positive control) or serum-free media (negative control) was added to lower chamber. In some experiments, cells were preincubated with the blocking antibody to IGF-1R (A12, 40 μg/ml), for 1 hour. After 4 hours of migration, filters were fixed with formaldehyde and stained with DAPI (4′6-Diamidine-2′-phenylindole dihydrochloride, Roche, Indianapolis, Ind.). Migrated cells were counted in three predesignated fields for each filter. All experiments were done in triplicate and repeated at least three times.
# [2] = assay type: in vivo, mice; settings: absence of bleomycin, not shown
# Excerpt: In the saline control group, most deaths occurred between 7 and 10 days, as expected in this model. […] In the absence of bleomycin, administration of A12 alone had no affect on survival, lung histology, BAL protein concentration or cell count (not shown).
substance,measurement,setting,value
"A12: Function blocking antibody to the human type 1 IGF receptor, gift from ImClone Systems",effect on IGF-1-induced migration,[1],inhibited; also recorded: abrogated the increased migration
same,"survival, lung histology, BAL protein concentration or cell count",[2],had no affect
